The target in assay [1] is T1, Rdc2 halogenase (Metacordyceps chlamydosporia, UniProt B3FWT7, INS404VIQGSGSS/INS87YTDFIA/S88A).
T1 construct: 2 was concentrated and exchanged into Buffer A; His6 (N); made in house; host or cells: Escherichia coli BL21-CodonPlus (DE3)-RIL
Type of assay: biochemical, P. chlamydosporia. To be noted: three independent experiments. As to the method: Kinetic analysis of two chlorination steps of dihydroresorcylide (compound 3) by an Rdc2 halogenase of the present disclosure was carried out. Dihydroresorcylide (compound 3) was chosen as the substrate to study the kinetics of the Rdc2 halogenase. To measure the ka, and Km for the C-11 chlorination, a series of 100-μL reaction systems were set up containing 100 μM FAD, 10 mM NADH, 10 mM NaCl, 16 μM Fre, and 16 μM Rdc2 halogenase in 100 mM phosphate buffer (pH 7.0) with varying amount of compound 3 (0.17 to 1.71 mM) in each tube. All the reaction components and Fre were mixed thoroughly and maintained at 28° C. for 2 min. Rdc2 was then added to initiate the reaction. After 30 minutes, the reactions were quenched with 200 μL of MeOH, briefly vortexed, and centrifuged at 15,000 rpm for 5 minutes. Product formation was quantified on the HPLC at 315 nm based on the area of the peaks and standard curve of compound 3a. Reactions were run in triplicate and the steady-state parameters kcat and Km were determined by nonlinear fitting of Michaelis-Menten equation.
For the second halogenations step, C-13 chlorination, the same method was used to determine kcat and Km except that 11-chlorodihydroresorcylide (compound 3a) was used as the substrate (0.03-0.18 mM).

Assay [2] deals with heat shock protein 90 (Hsp90). Conditions: general statement, no test described; cited from earlier work.
The mark [3] stands for this setting: C-13 halogenation (chlorination), compound 3a as substrate.

The structures appear in SMILES notation. Where two headings read alike, the source gives them in different places.

T1 sequence (B3FWT7 other isoform, or with tags, fused parts or gaps INS87YTDFIA/S88A/INS404VIQGSGSS): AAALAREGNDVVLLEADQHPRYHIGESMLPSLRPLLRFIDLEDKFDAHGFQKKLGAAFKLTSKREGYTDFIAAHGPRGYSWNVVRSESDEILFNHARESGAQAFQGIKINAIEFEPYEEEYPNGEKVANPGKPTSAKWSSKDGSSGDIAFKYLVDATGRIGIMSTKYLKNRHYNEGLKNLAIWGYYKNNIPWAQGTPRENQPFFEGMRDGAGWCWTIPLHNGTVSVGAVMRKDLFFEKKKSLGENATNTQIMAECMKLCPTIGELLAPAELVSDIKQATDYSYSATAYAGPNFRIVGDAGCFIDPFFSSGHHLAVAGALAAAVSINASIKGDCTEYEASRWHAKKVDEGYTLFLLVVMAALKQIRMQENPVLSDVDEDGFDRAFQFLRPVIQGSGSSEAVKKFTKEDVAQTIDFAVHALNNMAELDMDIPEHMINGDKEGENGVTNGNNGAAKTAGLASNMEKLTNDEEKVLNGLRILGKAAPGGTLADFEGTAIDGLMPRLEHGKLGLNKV

Take `CC1CCCC(=O)CCCc2c(Cl)c(O)cc(O)c2C(=O)O1` (stereo not drawn) [Compound 3a, 11-chlorodihydroresorcylide]: in assay [1] (setting [3]), the Km stood at 846 ± 26 µM and the kcat amounted to 0.0016 ± 6.7e-05 s⁻¹. Take `C[C@H]1CCCCCC(=O)Cc2cc(O)cc(O)c2C(=O)O1` [Compound 3, dihydroresorcylide]: in assay [1] (C-11 halogenation (chlorination), compound 3 as substrate, 16 μM Fre, 16 μM Rdc2, pH 7.0, 28° C., 30 minutes), the Km stood at 281 ± 20 µM. The kcat in assay [1] (C-11 halogenation (chlorination), compound 3 as substrate) is 0.0137 ± 0.000667 s⁻¹. As for `C[C@@H]1C[C@H]2O[C@@H]2/C=C\C=C\C(=O)Cc2cc(O)cc(O)c2C(=O)O1` [Compound 1, monocillin I], in assay [2], the Hsp90 inhibition entry is “potent”. For the compound `C[C@@H]1C[C@H]2O[C@@H]2/C=C\C=C\C(=O)Cc2c(Cl)c(O)cc(O)c2C(=O)O1` [Compound 1a, radicicol], the Hsp90 inhibition result in assay [2] was “potent”.

The Km is the substrate concentration at which the rate is half of its maximum. A word on the kcat: it is the maximal rate divided by the concentration of active sites.
